The source of these data is PMC5678585, “Screening a protein kinase inhibitor library against Plasmodium falciparum” (Malaria Journal, 2017).

Assay [1] has as its system Plasmodium falciparum 3D7. The experiment in a line: microbe, parasite or virus in culture. Particulars: for Percentage inhibition of the growth of Plasmodium falciparum: Prestwick Library pilot screen, duplicate; for inhibition at 5 µM: 3D7, read-out: Percentage inhibition of the growth of Plasmodium falciparum, Prestwick Library pilot screen, screening conc. 0.005 mM, duplicate; for inhibition at 6 µM: 3D7, read-out: Percentage inhibition of the growth of Plasmodium falciparum, Prestwick Library pilot screen, screening conc. 0.006 mM, duplicate; for inhibition at 8 µM: 3D7, read-out: Percentage inhibition of the growth of Plasmodium falciparum, Prestwick Library pilot screen, screening conc. 0.008 mM, duplicate. How it is done: Growth inhibition was quantified using a fluorescence assay utilizing the binding of SYBR Green I to double stranded DNA, which emits a fluorescent signal at 528 nm after excitation at 485 nm. The SYBR Green assay system was adapted to maximize robustness and to align with available automation systems. The Prestwick Library then used as a pilot screen to validate the performance of the optimized assay. […] Single point screens were carried out, and the potency of compounds of interest was determined in duplicate on two independent occasions. A 96-well [^3H]-Hypoxanthine incorporation assay was also developed as a secondary assay in order to validate key compounds from each hit series in an orthogonal platform.
(§1) All data were processed using IDBS ActivityBase. […] The formula used to calculate Z’ is 1-3×(StDev_high+StDev_low)/ABS(Mean_high-Mean_low) .
Two independent assays were run.

The test system of assay [2] is normal diploid human fibroblasts (MRC-5 pd30). The experiment in a line: cells. The assay is classed as cell-based. Particulars: Homo sapiens, MRC5; MRC-5 counter-screen plates; read-out: potency range (standard reference compound). As for the experimental part: Cells were plated and incubated overnight to allow them to adhere as monolayers. A working stock of each test compound was transferred to an intermediate 384-well plate and pre-diluted with minimum essential media (MEM). The pre-diluted stocks were then transferred onto the cell monolayers, and the plates were incubated for 68 h. Resazurin, to a final concentration of 50 μM was added to each well, after which plates were incubated for a further 3 h and measured for fluorescence (λ ex = 528 nm, λ em = 590 nm).
as §1
All EC50 Curve fitting was undertaken using XLFit version 4.2 using Model 205 with the following 4 parametric equation: y=A+B-A/1+[…], where A = % inhibition at bottom, B = % inhibition at top, C = EC50, D = slope, x = inhibitor concentration and y = % inhibition.
In general terms: A counterscreen serves to expose hits that act by an unwanted route or on another target.

Setting [3] is: Plasmodium falciparum, 3D7, read-out: Percentage inhibition of the growth of Plasmodium falciparum, Prestwick Library pilot screen, screening conc. 0.007 mM, duplicate.
The mark [4] stands for this setting: Plasmodium falciparum, 3D7, read-out: Percentage inhibition of the growth of Plasmodium falciparum, Prestwick Library pilot screen, screening conc. 0.004 mM, duplicate.
Setting [5] is: Plasmodium falciparum, read-out: Percentage inhibition of the growth of Plasmodium falciparum.
Where [6] appears, read: Plasmodium falciparum, 3D7, read-out: Percentage inhibition of the growth of Plasmodium falciparum, Prestwick Library pilot screen, screening conc. 0.003 mM, duplicate.

Structures can show the parent of a compound that is named as a salt. Where two headings read alike, the source gives them in different places.

In the case of `C=C[C@H]1CN2CC[C@H]1C[C@H]2[C@H](O)c1ccnc2ccccc12` [(-)-Cinchonidine, reference compound], the “Percentage inhibition of the growth of Plasmodium falciparum” value (shortened to “Percentage inhibition”) in assay [1] (screening conc. 0.007 mM) was 100 ± 1%.
As to `COc1ccc2c(c1OC)CN1CCc3cc4c(cc3C1C2)OCO4` (stereo not drawn) [(d,l)-Tetrahydroberberine, reference compound], the “Percentage inhibition” value in assay [1] (screening conc. 0.006 mM) is 83 ± 2%.
As to `COc1ccc(C[C@H]2NC[C@H](O)[C@H]2OC(C)=O)cc1` [Anisomycin, reference compound], the “Percentage inhibition” value in assay [1] (screening conc. 0.008 mM) is 102 ± 2%.
Turning to `C[C@@H]1CC[C@H]2[C@@H](C)C(=O)O[C@@H]3O[C@@]4(C)CC[C@@H]1[C@]32OO4` [Artemisinin, reference compound], in assay [1] (setting [3]), the inhibition – broadly, the drop in the measured response relative to a control, in per cent – at 7 µM was 99.5 ± 0.1%. Moreover, the “Percentage inhibition” value in assay [1] (screening conc. 0.007 mM) amounted to 100%.
In the case of `COc1ccc(CCN2CCC(Nc3nc4ccccc4n3Cc3ccc(F)cc3)CC2)cc1` [Astemizole, reference compound], the inhibition at 4 µM in assay [1] (setting [4]) amounted to 97.3 ± 0.8%.
Turning to `O=C1C(O)=C([C@H]2CC[C@H](c3ccc(Cl)cc3)CC2)C(=O)c2ccccc21` [Atovaquone, reference compound], the inhibition at 5 µM in assay [1] (Plasmodium falciparum) worked out at 99 ± 2%.
With `C[N+](C)(CCOc1ccccc1)Cc1ccccc1.O=C([O-])c1cc2ccccc2cc1O` [Bephenium hydroxynaphthoate, reference compound], the “Percentage inhibition” value in assay [1] (screening conc. 0.005 mM) stood at 55.1 ± 0.5%.
Take `COc1ccc2cc3[n+](cc2c1OC)CCc1cc2c(cc1-3)OCO2` [Berberine chloride, reference compound]: the inhibition at 5 µM in assay [1] (Plasmodium falciparum) was 99 ± 2%.
In the case of `CCCCOc1ccc(CC(=O)NO)cc1` [Bufexamac, reference compound], the inhibition at 9 µM in assay [1] (Plasmodium falciparum, 3D7, read-out: Percentage inhibition of the growth of Plasmodium falciparum, Prestwick Library pilot screen, screening conc. 0.009 mM, duplicate) was 69 ± 2%.
On to `CC[C@H]1CN2CCc3cc(OC)c(OC)cc3[C@@H]2C[C@@H]1C[C@H]1NCCc2cc(O)c(OC)cc21.Cl.Cl.O.O.O.O.O.O.O` [Cephaeline dihydrochloride heptahydrate, reference compound], for which the “Percentage inhibition” value in assay [1] (screening conc. 0.003 mM) amounted to 101 ± 3%.
`[H]/N=C(\N/C(=N/[H])NCCCCCCNC(=N)NC(=N)Nc1ccc(Cl)cc1)Nc1ccc(Cl)cc1` [Chlorhexidine, reference compound]: the inhibition at 4 µM in assay [1] (setting [4]) came to 98 ± 1%.
Take `CCN(CC)CCCC(C)Nc1ccnc2cc(Cl)ccc12` (stereo not drawn) [Chloroquine diphosphate, reference compound]: in assay [1] (setting [5]), the inhibition at 4 µM is 104 ± 1%.
For the molecule `C=C[C@H]1C[N@@]2CC[C@H]1C[C@@H]2[C@@H](O)c1ccnc2ccccc12` [Cinchonine, reference compound], the inhibition at 7 µM in assay [1] (setting [3]) came to 101 ± 5%.
On to `CCC(=O)O[C@]1(C(=O)CCl)[C@@H](C)C[C@H]2[C@@H]3CCC4=CC(=O)C=C[C@]4(C)[C@@]3(F)[C@@H](O)C[C@@]21C` [Clobetasol propionate, reference compound], for which, in assay [1] (setting [4]), the inhibition at 4 µM was found to be 50 ± 16%.
Regarding `C[C@@H]1C[C@@H]([C@H](O)CC2CC(=O)NC(=O)C2)C(=O)[C@@H](C)C1` [Cycloheximide, reference compound], the inhibition at 7 µM in assay [1] (setting [5]) is 103.1 ± 0.1%.
On to `COc1cccc2c1C(=O)c1c(O)c3c(c(O)c1C2=O)C[C@@](O)(C(C)=O)C[C@@H]3O[C@H]1C[C@H](N)[C@H](O)[C@H](C)O1` [Daunorubicin hydrochloride, reference compound], for which, in assay [1] (setting [5]), the inhibition at 4 µM was determined as 132 ± 1%.
On to `C[N+](C)(C)CCCCCCCCCC[N+](C)(C)C` [Decamethonium bromide, reference compound], for which, in assay [1] (Plasmodium falciparum), the inhibition at 5 µM is 64 ± 3%.
For `CN(CCCCCCCCCCN(C)C(=O)Oc1cccc([N+](C)(C)C)c1)C(=O)Oc1cccc([N+](C)(C)C)c1` [Demecarium bromide, reference compound], the inhibition at 3 µM in assay [1] (setting [5]) amounted to 104 ± 2%.
`COc1cc2nc(N3CCN(C(=O)C4COc5ccccc5O4)CC3)nc(N)c2cc1OC` (stereo not drawn) [Doxazosin mesylate, reference compound]: the inhibition at 4 µM in assay [1] (setting [4]) is 84 ± 0.6%.
On to `COc1cccc2c1C(=O)c1c(O)c3c(c(O)c1C2=O)C[C@@](O)(C(=O)CO)C[C@@H]3O[C@H]1C[C@H](N)[C@H](O)[C@H](C)O1` [Doxorubicin hydrochloride, reference compound], for which the inhibition at 3 µM in assay [1] (setting [6]) is 137 ± 2%.
`CC[C@H]1CN2CCc3cc(OC)c(OC)cc3[C@@H]2C[C@@H]1C[C@H]1NCCc2cc(OC)c(OC)cc21` [Emetine dihydrochloride, reference compound]: the inhibition at 4 µM in assay [1] (setting [4]) stood at 103 ± 2%.
For the molecule `Br.CC[C@H]1CN2CCC1C[C@H]2[C@H](O)c1ccnc2ccc(OC)cc12.O` (stereo partly drawn) [Hydroquinine hydrobromide hydrate, reference compound], the “Percentage inhibition” value in assay [1] (screening conc. 0.005 mM) came to 99 ± 2%.
In the case of `OC(c1cc(C(F)(F)F)nc2c(C(F)(F)F)cccc12)C1CCCCN1` (stereo not drawn) [Mefloquine hydrochloride, reference compound], the inhibition at 5 µM in assay [1] (Plasmodium falciparum) was 97.4 ± 0.4%.
`CN1C[C@H](CNC(=O)OCc2ccccc2)C[C@@H]2c3cccc4c3c(cn4C)C[C@H]21` [Metergoline, reference compound]: the inhibition at 5 µM in assay [1] (Plasmodium falciparum) was found to be 56 ± 2%.
For `CN(Cc1cnc2nc(N)nc(N)c2n1)c1ccc(C(=O)N[C@@H](CCC(=O)O)C(=O)O)cc1` [Methotrexate, reference compound], in assay [1] (setting [4]), the inhibition at 4 µM was determined as 100.9 ± 0.7%.
As for `O=C1c2c(O)ccc(O)c2C(=O)c2c(NCCNCCO)ccc(NCCNCCO)c21` [Mitoxantrone dihydrochloride, reference compound], in assay [1] (setting [4]), the inhibition at 4 µM is 140 ± 2%.
Turning to `COc1c(C)c2c(c(O)c1C/C=C(\C)CCC(=O)O)C(=O)OC2` [Mycophenolic acid, reference compound], the inhibition at 6 µM in assay [1] (Plasmodium falciparum) worked out at 63 ± 3%.
In the case of `CC(=O)O[C@H]1C(=O)[C@@]2(C)[C@H]([C@H](OC(=O)c3ccccc3)[C@]3(O)C[C@H](OC(=O)[C@H](O)[C@@H](NC(=O)c4ccccc4)c4ccccc4)C(C)=C1C3(C)C)[C@]1(OC(C)=O)CO[C@@H]1C[C@@H]2O` [Paclitaxel, reference compound], in assay [1] (Plasmodium falciparum, 3D7, read-out: Percentage inhibition of the growth of Plasmodium falciparum, Prestwick Library pilot screen, screening conc. 0.002 mM, duplicate), the inhibition at 2 µM was 65 ± 2%.
Consider `N=C(N)c1ccc(OCCCCCOc2ccc(C(=N)N)cc2)cc1` [Pentamidine isethionate, reference compound], for which the inhibition at 3 µM in assay [1] (setting [6]) is 100 ± 4%.
Turning to `COc1cc(NC(C)CCCN)c2ncccc2c1` (stereo not drawn) [Primaquine diphosphate, reference compound], the inhibition at 4 µM in assay [1] (setting [4]) came to 100 ± 4%.
With `[H]/N=C(\N/C(=N/[H])Nc1ccc(Cl)cc1)NC(C)C` [Proguanil hydrochloride, reference compound], in assay [1] (setting [3]), the inhibition at 7 µM is 49 ± 4%.
Regarding `CCCNCC(O)COc1ccccc1C(=O)CCc1ccccc1` (stereo not drawn) [Propafenone hydrochloride, reference compound], in assay [1] (Plasmodium falciparum), the inhibition at 5 µM is 99 ± 1%.
Take `COc1ccc(C[C@H](N)C(=O)N[C@H]2[C@@H](O)[C@H](n3cnc4c(N(C)C)ncnc43)O[C@@H]2CO)cc1` [Puromycin dihydrochloride, reference compound]: the inhibition at 4 µM in assay [1] (setting [4]) was 96 ± 5%.
On to `CCc1nc(N)nc(N)c1-c1ccc(Cl)cc1` [Pyrimethamine, reference compound], for which the inhibition at 8 µM in assay [1] (Plasmodium falciparum) is 101 ± 2%.
Regarding `CCN(CC)CCCC(C)Nc1c2ccc(Cl)cc2nc2ccc(OC)cc12` (stereo not drawn) [Quinacrine dihydrochloride dihydrate, reference compound], the inhibition at 4 µM in assay [1] (setting [4]) was 100 ± 2%.
As for `C=C[C@H]1CN2CC[C@H]1C[C@@H]2[C@@H](O)c1ccnc2ccc(OC)cc12.Cl.O` [Quinidine hydrochloride monohydrate, reference compound], in assay [1] (screening conc. 0.005 mM), the “Percentage inhibition” value was 100 ± 2%.
On to `CCCCCCCCNC(C)C(O)c1ccc(SC(C)C)cc1` (stereo not drawn) [Suloctidil, reference compound], for which the inhibition at 6 µM in assay [1] (Plasmodium falciparum) came to 101 ± 1%.
For the molecule `CCCCCCCCCCCCCCCC[N+](C)(C)CCN(Cc1ccc(OC)cc1)c1ncccn1` [Thonzonium bromide, reference compound], the inhibition at 3 µM in assay [1] (setting [6]) was 70 ± 1%.
For the molecule `Nc1nc(N)c2nc(-c3ccccc3)c(N)nc2n1` [Triamterene, reference compound], in assay [1] (Plasmodium falciparum), the inhibition at 8 µM amounted to 69 ± 1%.
`COc1cccc2c1C(=O)c1c(O)c3c(c(O)c1C2=O)C[C@@](O)(C(=O)CO)C[C@@H]3O[C@H]1C[C@H](N)[C@H](O)[C@H](C)O1` [doxorubicin, reference compound]: the EC50 in assay [2] is 200 to 400 nM.
Regarding Verteporfin [reference compound], in assay [1] (screening conc. 0.003 mM), the “Percentage inhibition” value was 95 ± 2%.
